From patent US10570155B2, “Imidazooxazole derivative having antitumor effect, and pharmaceutical composition including same” (KOREA INSTITUTE OF SCIENCE AND TECHNOLOGY, priority 2016, dated 2020)
Values belong to the molecule of their own block, whether it stands above or below them.

Key:
[1] = system: A375P cell line; test: Inhibitory activity against proliferation of A375P melanoma cell line (MTT assay); assay type: cell-based; settings: Homo sapiens
Experimental: To examine whether the compounds (2II, 9II, 10II, and 12II to 15II) of the present disclosure have remarkable effects, as compared with imidazothiazole-based compounds previously disclosed by the present inventors (M. S. Abdel-Maksoud et al./European Journal of Medicinal Chemistry 95 (2015) 453-463), inhibitory activities thereof against proliferation of A375P cell line which is a melanoma cell line were compared by the following experiments.
A375P cell line purchased from ATCC was cultured in a DMEM medium [containing 10% FBS and 1% penicillin/streptomycin] under 5% CO2 at 37° C. The cultured A375P cell line was collected using 0.05% trypsin-0.02% EDTA, and inoculated at a cell density of 5×10^3 cells per well in a 96-well plate. To measure cell viability, MTT [3-(4,5-dimethylthiazol-2-yl)-2,5-diphenyltetrazolium bromide] assay (CellTiter 96 Assay, Promega) was performed as follows. MTT assay was performed in accordance with the guidelines of CellTiter 96® (Promega).

[2] = system: SK-MEL-2; test: NCI cancer cell line panel screening (SRB), melanoma cell line SK-MEL-2; assay type: cell-based, human; settings: Homo sapiens, read-out: IC50 against melanoma cell line in vitro
Experimental: (§1) According to the standard protocol (http://dtp.nci.nih.gov/dtpstandard/dwindex/index.isp) of the US National Cancer Institute (NCI) (www.dtp.nci.nih.gov), screening of a cancer cell line panel was performed. […] For a general screening experiment, cells were inoculated in 96-well microtiter plates in 100 μl at a plating density ranging from 5000 cells/well to 40,000 cells/well depending on the doubling time of individual cell lines. After cell inoculation, the microtiter plates were incubated at 37° C., 5% CO2, 95% air, and 100% relative humidity for 24 hours prior to addition of test compounds. 24 hours later, two plates of each cell line were fixed in situ with trichloroacetic acid (TCA) to measure the cell population for each cell line at the time of test compound addition (Tz). Test compounds were solubilized in dimethyl sulfoxide at 400-fold the intended final maximum test concentration, and stored frozen prior to use. At the time of compound addition, an aliquot of frozen concentrate was thawed and diluted to twice the intended final maximum test concentration with a complete medium containing 50 μg/ml of gentamicin. Additional four concentration of 10-fold or ½ log serial dilutions were made to provide a total of five compound concentrations plus control. Aliquots of 100 μl of these different compound dilutions were added to appropriate microtiter wells already containing 100 μl of medium, resulting in the required final compound concentrations.
(§2) Following compound addition, the plates were incubated for additional 48 hours at 37° C., 5% CO2, 95% air, and 100% relative humidity. For adherent cells, the assay was terminated by the addition of cold TCA. Cells were fixed in situ by the gentle addition of 50 μl of cold 50% (w/v) TCA (final concentration, 10% TAC) and incubated at 4° C. for 60 minutes. The supernatant was discarded, and the plates were washed five times with tap water and air-dried. A sulforhodamine B (SRB) solution (100 μl) at 0.4% (w/v) in 1% acetic acid was added to each well, and plates were incubated at room temperature for 10 minutes. After staining, unbound dye was removed by washing five times with 1% acetic acid and the plates were air-dried. […] For suspension cells, the methodology was the same except that the assay was terminated by fixing settled cells at the bottom of the wells by gently adding 50 μl of 80% TCA (final concentration, 16% TCA). Using the seven absorbance measurements [time zero (Tz), control growth (C), and test growth rate in the presence of compound at the five concentration levels (Ti)], the growth percentage was calculated at each of the compound concentration levels. Growth inhibition percentage was calculated as follows: [(Ti−Tz)/(C−Tz)]×100 for concentrations for which Ti>/=Tz [(Ti−Tz)/Tz]×100 for concentrations for which Ti<Tz.

[3] = system: UACC-62; test: NCI cancer cell line panel screening (SRB), melanoma cell line UACC-62; assay type: cell-based; settings: Homo sapiens, read-out: IC50 against melanoma cell line in vitro
Experimental: (§3) According to the standard protocol (http://dtp.nci.nih.gov/dtpstandard/dwindex/index.isp) of the US National Cancer Institute (NCI) (www.dtp.nci.nih.gov), screening of a cancer cell line panel was performed. Briefly, human cell lines were allowed to grow in an RPMI 1640 medium containing 5% FBS and 2 mM L-glutamine. For a general screening experiment, cells were inoculated in 96-well microtiter plates in 100 μl at a plating density ranging from 5000 cells/well to 40,000 cells/well depending on the doubling time of individual cell lines. After cell inoculation, the microtiter plates were incubated at 37° C., 5% CO2, 95% air, and 100% relative humidity for 24 hours prior to addition of test compounds. 24 hours later, two plates of each cell line were fixed in situ with trichloroacetic acid (TCA) to measure the cell population for each cell line at the time of test compound addition (Tz). Test compounds were solubilized in dimethyl sulfoxide at 400-fold the intended final maximum test concentration, and stored frozen prior to use. At the time of compound addition, an aliquot of frozen concentrate was thawed and diluted to twice the intended final maximum test concentration with a complete medium containing 50 μg/ml of gentamicin. Additional four concentration of 10-fold or ½ log serial dilutions were made to provide a total of five compound concentrations plus control. Aliquots of 100 μl of these different compound dilutions were added to appropriate microtiter wells already containing 100 μl of medium, resulting in the required final compound concentrations.
(§4) Following compound addition, the plates were incubated for additional 48 hours at 37° C., 5% CO2, 95% air, and 100% relative humidity. For adherent cells, the assay was terminated by the addition of cold TCA. Cells were fixed in situ by the gentle addition of 50 μl of cold 50% (w/v) TCA (final concentration, 10% TAC) and incubated at 4° C. for 60 minutes. The supernatant was discarded, and the plates were washed five times with tap water and air-dried. A sulforhodamine B (SRB) solution (100 μl) at 0.4% (w/v) in 1% acetic acid was added to each well, and plates were incubated at room temperature for 10 minutes. After staining, unbound dye was removed by washing five times with 1% acetic acid and the plates were air-dried. Bound stain was subsequently solubilized with 10 mM Trizma base, and the absorbance was read on an automated plate reader at a wavelength of 515 nm. For suspension cells, the methodology was the same except that the assay was terminated by fixing settled cells at the bottom of the wells by gently adding 50 μl of 80% TCA (final concentration, 16% TCA). Using the seven absorbance measurements [time zero (Tz), control growth (C), and test growth rate in the presence of compound at the five concentration levels (Ti)], the growth percentage was calculated at each of the compound concentration levels. Growth inhibition percentage was calculated as follows: [(Ti−Tz)/(C−Tz)]×100 for concentrations for which Ti>/=Tz [(Ti−Tz)/Tz]×100 for concentrations for which Ti<Tz.

[4] = system: LOX IMVI; test: NCI cancer cell line panel screening (SRB), melanoma cell line LOX IMVI; assay type: cell-based, human; settings: Homo sapiens, read-out: IC50 against melanoma cell line in vitro
Experimental: as §1, §2

[5] = system: M14; test: NCI cancer cell line panel screening (SRB), melanoma cell line M14; assay type: cell-based; settings: Homo sapiens, read-out: IC50 against melanoma cell line in vitro
Experimental: as §3, §4

[6] = system: SK-MEL-5; test: NCI cancer cell line panel screening (SRB), melanoma cell line SK-MEL-5; assay type: cell-based, human; settings: Homo sapiens, read-out: IC50 against melanoma cell line in vitro
Experimental: as §1, §2

[7] = system: SK-MEL-28; test: NCI cancer cell line panel screening (SRB), melanoma cell line SK-MEL-28; assay type: cell-based, human; settings: Homo sapiens, read-out: IC50 against melanoma cell line in vitro
Experimental: as §1, §2

[8] = system: MDA-MB-435; test: NCI cancer cell line panel screening (SRB), melanoma cell line MDA-MB-435; assay type: cell-based; settings: Homo sapiens, read-out: IC50 against melanoma cell line in vitro
Experimental: as §3, §4

[9] = biological target: V600E-B-RAF (Homo sapiens (Human), UniProt P15056, V600E); test: Protein kinase enzymatic activity (Reaction Biology kinase hotspot, 33P-ATP); assay type: biochemical; settings: read-out: Inhibitory effect against kinase activity, V600E-B-RAF (IC50)
Experimental: (§5) Reaction biology kinase hotspot service (http://www.reactionbiology.com) was used to measure IC50. In a final reaction volume of 25 μL, kinase (5 mU to 10 mU) was incubated with 25 mM Tris (pH 7.5), 0.02 mM EGTA, 0.66 mg/ml of myelin basic protein, 10 mM magnesium acetate, and [^33P-ATP] (specific activity of about 500 CPM/pmol, concentration as required). The reaction was initiated by addition of Mg-ATP mix. After incubation for 40 min at room temperature, the reaction was stopped by addition of 5 μl of a 3% phosphoric acid solution. 10 μL of the reaction was then spotted onto a P30 filtermat and washed three times for 5 minutes in 75 mM phosphoric acid and once in methanol prior to drying and scintillation counting.

[10] = biological target: B-RAF (Homo sapiens (Human), UniProt P15056); test: as above; assay type: biochemical; settings: read-out: Inhibitory effect against kinase activity, B-RAF (IC50)
Experimental: as §5

[11] = system: A375; test: NCI cancer cell line panel screening (SRB), melanoma cell line A375; assay type: cell-based; settings: Homo sapiens, A-375, read-out: IC50 against melanoma cell line in vitro
Experimental: as §3, §4

Chain of B-RAF (P15056 whole entry): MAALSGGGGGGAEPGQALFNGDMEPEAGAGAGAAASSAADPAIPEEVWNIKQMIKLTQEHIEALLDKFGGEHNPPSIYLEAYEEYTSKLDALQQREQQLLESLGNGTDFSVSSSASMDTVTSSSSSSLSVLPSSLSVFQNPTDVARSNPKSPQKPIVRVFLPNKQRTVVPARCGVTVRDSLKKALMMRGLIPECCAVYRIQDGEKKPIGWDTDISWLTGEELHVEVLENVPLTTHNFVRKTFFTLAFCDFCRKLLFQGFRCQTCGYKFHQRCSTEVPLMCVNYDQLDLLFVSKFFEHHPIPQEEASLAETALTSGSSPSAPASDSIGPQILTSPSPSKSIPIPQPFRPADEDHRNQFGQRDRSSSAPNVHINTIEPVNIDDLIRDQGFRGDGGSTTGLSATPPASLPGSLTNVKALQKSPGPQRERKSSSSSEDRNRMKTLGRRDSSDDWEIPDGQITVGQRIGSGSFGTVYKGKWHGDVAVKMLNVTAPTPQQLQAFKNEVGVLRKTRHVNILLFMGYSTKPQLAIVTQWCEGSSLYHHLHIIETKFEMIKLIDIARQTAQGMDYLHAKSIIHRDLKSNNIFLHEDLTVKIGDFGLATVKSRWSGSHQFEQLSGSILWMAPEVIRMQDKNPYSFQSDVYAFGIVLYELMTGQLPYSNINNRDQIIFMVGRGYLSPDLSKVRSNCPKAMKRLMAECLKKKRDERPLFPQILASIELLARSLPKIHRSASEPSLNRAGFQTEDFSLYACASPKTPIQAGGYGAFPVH
Chain of V600E-B-RAF (P15056 whole entry V600E): as the sequence (P15056 whole entry) above, with V600E counted along it

Structure (SMILES): CN1CCN(CCNc2nccc(-c3c(-c4cccc(O)c4)nc4sccn34)n2)S1(=O)=O
IC50 [1]: 60 nM

Structure (SMILES): O=S1(=O)N(CCNc2nccc(-c3c(-c4cccc(O)c4)nc4sccn34)n2)CCN1Cc1ccccc1
IC50 [1]: 250 nM

Structure (SMILES): CN1CCCN(CCNc2nccc(-c3c(-c4cccc(O)c4)nc4sccn34)n2)S1(=O)=O
IC50 [1]: 470 nM

Structure (SMILES): CC(C)(C)OC(=O)N1CCCN(CCNc2nccc(-c3c(-c4cccc(O)c4)nc4sccn34)n2)S1(=O)=O
IC50 [1]: 470 nM

Structure (SMILES): COc1ccc(S(=O)(=O)NCCNc2nccc(-c3c(-c4ccccc4)nc4sccn34)n2)cc1 [2III, 4-Methoxy-N-(2-((4-(6-phenylimidazo[2,1-b]thiazol-5-yl)pyrimidin-2-yl)amino)ethyl)benzenesulfonamide]
IC50 [2]: 4980 nM | IC50 [3]: 1170 nM | IC50 [4]: 3940 nM | IC50 [5]: 2770 nM | IC50 [6]: 1680 nM | IC50 [7]: 5790 nM | IC50 [8]: 1220 nM | IC50 [9]: 77 nM | IC50 [10]: 459 nM

Structure (SMILES): CC1(C)CN(CCNc2nccc(-c3c(-c4cccc(O)c4)nc4occn34)n2)S(=O)(=O)N1 [5II, 2-(2-((4-(6-(3-Hydroxylphenyl)imidazo[2,1-b]oxazol-5-yl)pyrimidin-2-yl)amino)ethyl)-4,4-dimethyl-1,2,5-thiadiazolidine 1,1-dioxide]
IC50 [2]: 1600 nM | IC50 [3]: 90 nM | IC50 [11]: 870 nM | IC50 [4]: 2300 nM | IC50 [5]: 320 nM | IC50 [6]: 340 nM | IC50 [7]: 220 nM | IC50 [8]: 740 nM

More lines, now with the values ahead:

IC50 [1]: 630 nM
Structure (SMILES): O=S1(=O)NCCN1CCNc1nccc(-c2c(-c3cccc(O)c3)nc3sccn23)n1

IC50 [1]: 870 nM
Structure (SMILES): CC1(C)CN(CCNc2nccc(-c3c(-c4cccc(O)c4)nc4sccn34)n2)S(=O)(=O)N1

IC50 [1]: 720 nM
Structure (SMILES): O=S1(=O)NCCCN1CCNc1nccc(-c2c(-c3cccc(O)c3)nc3sccn23)n1
